From patent US20240201204A1, “Biomarker and Druggable Target of Neurodegeneration” (University Hospitals Cleveland Medical Center, priority 2020, published 2024)

How the values were obtained:
GAPDH = target: T1, GAPDH (Mus musculus, UniProt P16858); test: S-nitrosylation of GAPDH after TBI (SNO-resin assisted capture, western blot); format: in vivo
T1 construct: from tissue; host or cells: cerebral cortex of C57BL/6J mice after TBI
Method: Drug preparation and administration: CGP3466B (Sigma-Aldrich, SML1941) was dissolved in DMSO and then diluted in sterile saline. The final working stock was 0.0014 mg/ml for administering the 0.014 mg/kg dose. Intraperitoneal administration of CGP3466B was initiated 15 min or 24 h after injury, and tissues were harvested 6 h (for SNO-GAPDH, SNO-SIRT1 measurement) or 2 weeks (for ac-tau measurement) later, respectively. Salsalate (AdipoGen, AG-CR1-3574) was dissolved in DMSO and then diluted in sterile PBS. The final working stocks were as follows: 2.5 mg/ml (25 mg/kg dose), 1 mg/ml (10 mg/kg dose), 0.5 mg/ml (5 mg/kg dose). Daily intraperitoneal administration of salsalate was initiated 24 hr after injury and continued throughout behavioral testing. P7C3-A20 and FK866 (Sigma-Aldrich, F8557) were first dissolved in 1 vol of DMSO, followed by addition of 4 vol of Kolliphor and vigorously vortexing. The solution was then diluted with 30 vol of filtered 5% dextrose (pH 7.0). EX527 (Selleckchem, S1541) was dissolved in 1% DMSO+30% polyethylene glycol+1% Tween 80. Daily intraperitoneal administration of P7C3-A20 was initiated 24 hr after poly-traumatic brain injury. EX527 (10 mg/kg) was administer once a day and FK866 was treated twice per day, with the first injection given at the same time as P7C3-A20 (20 mg/kg) and the second injection given 6 h later (LoCoco et al., 2017 eLife). Diflunisal was first dissolved in 1 vol of DMSO, followed by addition of 2 vol of Kolliphor and vigorously vortexing. […]
SNO-resin assisted capture (SNO-RAC): SNO-RAC was performed as described previously (Forrester, 2009). […] After two times centrifugation (20,000 g at 4° C. for 20 min), protein concentration of supernatants was determined using Coomassie protein assay (Thermo Scientific, #1856210). […] SNO-proteins were then eluted with 2× Laemmli Sample Buffer (Bio-Rad Laboratories, Inc., #1610737) with 10% beta-mercaptoethanol (Bio-Rad Laboratories, Inc., #1610710) and analyzed by SDS-PAGE and immunoblotting.

axon initial segment = test: Axon initial segment (AIS) degradation after TBI (AnkG, βIV-spectrin staining); format: in vivo, mouse; conditions: vs. TBI+Vehicle
Method: (§1) Drug preparation and administration: CGP3466B (Sigma-Aldrich, SML1941) was dissolved in DMSO and then diluted in sterile saline. The final working stock was 0.0014 mg/ml for administering the 0.014 mg/kg dose. Intraperitoneal administration of CGP3466B was initiated 15 min or 24 h after injury, and tissues were harvested 6 h (for SNO-GAPDH, SNO-SIRT1 measurement) or 2 weeks (for ac-tau measurement) later, respectively. Salsalate (AdipoGen, AG-CR1-3574) was dissolved in DMSO and then diluted in sterile PBS. The final working stocks were as follows: 2.5 mg/ml (25 mg/kg dose), 1 mg/ml (10 mg/kg dose), 0.5 mg/ml (5 mg/kg dose). Daily intraperitoneal administration of salsalate was initiated 24 hr after injury and continued throughout behavioral testing. P7C3-A20 and FK866 (Sigma-Aldrich, F8557) were first dissolved in 1 vol of DMSO, followed by addition of 4 vol of Kolliphor and vigorously vortexing. The solution was then diluted with 30 vol of filtered 5% dextrose (pH 7.0). EX527 (Selleckchem, S1541) was dissolved in 1% DMSO+30% polyethylene glycol+1% Tween 80. Daily intraperitoneal administration of P7C3-A20 was initiated 24 hr after poly-traumatic brain injury. EX527 (10 mg/kg) was administer once a day and FK866 was treated twice per day, with the first injection given at the same time as P7C3-A20 (20 mg/kg) and the second injection given 6 h later (LoCoco et al., 2017 eLife). Diflunisal was first dissolved in 1 vol of DMSO, followed by addition of 2 vol of Kolliphor and vigorously vortexing. The solution was then diluted with 7 vol of saline to the appropriate concentration for administration at 25, 50, or 100 mg/kg.
(§2) The pressure in the side not containing the mouse was increased to cause membrane rupture at 20 pounds per square inch (PSI), which generates an about 1-2 ms jet airflow of 137.9+/−13.79 kPa that passes through the animal's head. The head remains untethered in a padded holder, while the body is fully shielded by a metal tube. The jet of air produced upon membrane rupture provides a concussive injury, which is followed by acceleration/deceleration of the head and then exposure to the ensuing blast wave within an enclosed space.
Immunohistochemistry: Mice were transcardially perfused with cold 1× phosphate-buffered saline (PBS) followed by 4% paraformaldehyde in PBS at pH 7.4 under anesthesia. Brains were carefully removed and post-fixed in 4% paraformaldehyde overnight at 4° C. Brains were immersed in 30% sucrose in PBS for 72 h at 4° C. and then rapidly frozen in 2-methylbutane pre-cooled to −20° C. with dry ice. Brains were cut coronally (40 μm) and sections were stored in cryoprotective solution (150 mM Ethylene glycol, 100 mM glycerol, 250 mM PBS) at −20° C. For tau and NeuN staining, sections were washed three times with PBS for 5 min and then treated with 0.2% Triton X-100 in PBS for 15 min. Sections were washed with PBS and then incubated with 100 mM glycine for 15 min. After blocking sections using blocking buffer (1% bovine serum albumin, 10% normal goat serum, 0.3 M glycine) for 30 min, primary antibodies (Tau, Invitrogen, #13-6400, 1:100, NeuN, EMD Millipore Cor., #MABN-140, 1:500) were incubated overnight at 4° C. Sections were washed three times with PBS (5 min each) and then incubated with Alexa Fluor 488 goat anti-mouse (Invitrogen, A11001, 1:200) or Alexa Fluor 568 goat anti-rabbit (Life technologies, A11011, 1:200) at room temperature for 2 h. […]

C57BL/6J mice = test: Barnes maze task of learning and memory after TBI; format: in vivo, mouse
Method: as §1, §2
Barnes maze: The Barnes maze apparatus consisted of a gray circular platform (91 cm in diameter and 90 cm in height), with 20 equally spaced holes 5 cm in diameter along the perimeter (Stoelting Co.). One of these holes contained a recessed escape chamber located under the platform. Four different and equally-spaced visual cues with different shapes and colors were hung on a black circular curtain surrounding the maze. […] Total and primary latency were measured during training days, and latency to first nose pokes in escape hole and time spent in target quadrant were measured for memory test on the probe trial day. […]

T1 sequence (P16858 whole entry): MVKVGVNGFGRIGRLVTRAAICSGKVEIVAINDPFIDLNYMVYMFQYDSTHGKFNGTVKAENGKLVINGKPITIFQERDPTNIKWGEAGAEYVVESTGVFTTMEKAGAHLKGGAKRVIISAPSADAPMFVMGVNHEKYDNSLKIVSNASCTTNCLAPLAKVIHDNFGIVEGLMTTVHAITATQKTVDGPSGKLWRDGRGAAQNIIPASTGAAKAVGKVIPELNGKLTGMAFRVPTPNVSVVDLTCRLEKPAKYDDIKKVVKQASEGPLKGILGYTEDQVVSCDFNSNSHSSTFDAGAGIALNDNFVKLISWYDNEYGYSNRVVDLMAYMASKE

Compound: O=C(Oc1ccccc1C(=O)O)c1ccccc1O [salsalate]
- S-nitrosylation of GAPDH (GAPDH; 25 mg/kg salsalate after TBI): S-nitrosylation of GAPDH is not affected
- post-TBI AIS degradation (axon initial segment; low-dose salsalate daily IP from 24 h after TBI): protects mice from post-TBI AIS degradation
- post-TBI cognitive impairment (learning and memory in the Barnes maze) (C57BL/6J mice; low-dose salsalate daily IP from 24 h after TBI, vs. TBI+Vehicle): protects mice from post-TBI impairments
- average speed in behavioral testing (C57BL/6J mice; salsalate daily IP from 24 h after TBI): Average speed was not affected
- learning, primary latency during training period of the Barnes maze (C57BL/6J mice; salsalate daily IP from 24 h after TBI, vs. TBI+Vehicle): improved learning as measured by primary latency

Compound: C#CCN(C)CC1=Cc2ccccc2Oc2ccccc21.O=C(O)/C=C\C(=O)O [CGP3466B]
- S-nitrosylation of GAPDH (GAPDH; CGP3466B 0.014 mg/kg IP initiated 15 min after TBI, cerebral cortex harvested 6 h later, vs. TBI+Vehicle): inhibits S-nitrosylation of GAPDH and Sirt1
- post-TBI AIS degradation, cerebral cortex (axon initial segment; CGP3466B 0.014 mg/kg IP daily): protects mice from post-TBI AIS degradation in the cerebral cortex
- post-TBI AIS degradation, hippocampus (axon initial segment; CGP3466B 0.014 mg/kg IP daily): protects mice from post-TBI AIS degradation in the hippocampus
- post-TBI cognition, learning and memory phases of Barnes maze (C57BL/6J mice; CGP3466B 0.014 mg/kg IP daily, initiated 24 hours after injury, vs. TBI+Vehicle): protects mice from post-TBI impaired cognition in both learning and memory phases
